Experimental data: patent US12226384B2, “Peramivir solution type inhalant and preparation method therefor” (priority 2019, dated 2025)
Where two headings read alike, the source gives them in different places.

How the values were obtained:
[1] = Equilibrium solubility of peramivir in saline solutions of different pH; type: physicochemical; set-up: unit not given here; settings: 25° C.
Description: An excess amount of bulk peramivir was drawn and placed into a 25 ml volumetric flask, and 0.7% salt solution was applied to bring the volume to scale; the diluted solution was placed on a shaker and shaken for 24 h (25° C., 75 rpm), and then dilute hydrochloric acid (5%, V/V) was applied to regulate the pH to 4, 4.5, 5.0, and 5.5, respectively; the pH-regulated solutions were placed for another 48 h, and then filtered with a 0.45 μm filter membrane; the filtrates were diluted 250-fold with deionized water; the peramivir contents in the samples were determined by the HPLC method in peramivir standard.

[2] = cited from earlier work
[3] = at respective timing
Description: Experiment Method: 15 SD male rats were drawn to be randomly assigned into 3 groups, 5 rats in each group, and peramivir sodium chloride injection (Lot No.: 3139262, Guangzhou Nanxin Pharmaceutical Co., Ltd.) was administered via intravenous injection at a dose of 10 mg/kg. 0.20 ml blood was collected from orbital venous plexus at 5 min, 1 h, and 3 h after dosing to the rats, respectively; and then the rats were lethally anesthetized to harvest the lung tissues (including trachea). After being anticoagulated by heparin sodium, the whole blood was centrifuged (1000 rpm, 5 min) to harvest the plasma; the lung tissues were rinsed and weighed; the plasma and lung tissues were placed under −20° C. until used for testing.
The rats were lethally anesthetized at 5 min, 1 h, and 3 h after administration, respectively, with their weights weighed and recorded; then, they were exercised to remove lung tissues (including trachea); the lung tissues were rinsed with saline solution; the residual liquid was sucked dry with filter paper; the lung tissues with the residual liquid were placed in an EP tube, weighed with deduction of the weight of the EP tube the weighed weight was recorded; finally, the lung tissues were placed in a −20° C. refrigerator for storage. […]
Peramivir standard solutions with concentrations of 0.5, 1, 5, 10, 50, 100, 200 μg/mL, respectively, were formulated using 1 mg/mL mother solution according to the gradient dilution method. […] The intra-day lung tissue drug concentrations were calculated according to standard protocol. […]

CCC(CC)[C@H](NC(C)=O)[C@@H]1[C@H](O)[C@@H](C(=O)O)C[C@H]1NC(=N)N [Peramivir, (−)-(1S, 2S, 3R, 4R)-2-hydroxy-3-[(1S)-1-acetamido-2-ethyl]butyl-4-guanidinocyclopenta-1-carbo xylic acid]
Equilibrium Solubility of Peramivir in Saline Solutions ([1]; pH = 4.0, 0.7% salt solution): 33.93 ± 0.51 | Equilibrium Solubility of Peramivir in Saline Solutions ([1]; pH = 4.5, 0.7% salt solution): 26.53 ± 0.14 | Equilibrium Solubility of Peramivir in Saline Solutions ([1]; pH = 5.0, 0.7% salt solution): 22.84 ± 0.39 | Equilibrium Solubility of Peramivir in Saline Solutions ([1]; pH = 5.5, 0.7% salt solution): 22.04 ± 0.21 | Equilibrium Solubility of Peramivir in Saline Solutions ([1]; pH was not regulated with 0.7% salt solution (pH = 6.86)): 21.48 ± 0.31 | stability of peramivir APIs ([2]; 48 h at 100° C.): stable | stability of peramivir APIs ([2]; acidic conditions): unstable | stability of peramivir APIs ([2]; alkaline and neutral environments): good stability | stability of peramivir APIs ([2]; light irradiation for 10 days): good stability | lung tissue concentration, aerosol inhalation relative to intravenous administration ([3]; aerosol 10 mg/kg vs intravenous 10 mg/kg): 2.02˜41.58 times | lung tissue concentration, aerosol inhalation relative to intravenous administration ([3]; aerosol low dose 2.5 mg/kg vs intravenous 10 mg/kg): 1.07˜4.58 times | lung tissue concentration, aerosol inhalation relative to intravenous administration ([3]; aerosol medium dose 5 mg/kg vs intravenous 10 mg/kg): 1.58˜5.31 times
